Source: US6218430A, “Vitamin D3 mimics” (Ligand Pharmaceuticals Incorporated, priority 1998, dated 2001)
pEC50, pIC50, pKi: −log10 of the molar value. Entries after “also recorded” stand apart in the source; their conditions may differ.

What was measured:
[1] = target: serum DBP; assay: Serum DBP binding, rat or human serum, species not given; settings: rat (r) or human (h) serum DBP, not marked (r)/(h); competition with [3H]-25(OH)D3
Method: Serum DBP-binding. DPB competition binding assays were performed by a literature method (Dusso et al. 1991). The source of DBP was either human serum (Scantibodies) or rat serum (Gibco-BRL) diluted 1:10,000 in sodium phosphate buffer (pH 7.4). Sera were incubated for 2 h at 4° C. with 2 nM [^3 H]-25(OH)D3 (Amersham) with and withoun unlabeled 25(OH)D3 or 1,25(OH)2D3 (0.01 nM-1 μM), or unlabeled vitamin D mimic compounds (10 nM-10 μM). Bound ligand was separated from unbound ligand with Dextran-coated charcoal in gelatin-phosphate buffer.

[2] = system: HL60 cells; assay: Leukemic cell differentiation (NBT and CD14); assay type: cell-based; settings: Homo sapiens, HL-60, 120 h; NBT and CD14 assays; differentiation into macrophages/monocytes; 5 days
Method: Leukemic cell differentiation. […] Ligands were added in ethanol vehicle (1%) at various concentrations for 5 days without changing the media. On the fifth day, cells were harvested and assayed for markers of differentiation. […] Cells that bioreduce the dye turn blue-black and represent differentiated cells, and are counted. Undifferentiated cells are clear and are also counted; percent differentiated cells are then determined from the two numbers.

[3] = system: LNCaP prostate cancer cells; assay: Prostate cancer cell growth inhibition (BrdU); assay type: cell-based; settings: Homo sapiens, 96 h, BrdU incorporation, 4-day assay
Method: (§1) Cancer cell growth inhibition and analysis. SK-BR-3 human breast cancer cells (ATCC) and LNCaP human prostate cancer cells (ATCC) were plated in 96-well, flat-bottomed microtiter plates (CoStar) with 50 μL serum-containing media/well. […] Cell plating numbers (cells/well) were as follows: SK-BR-3, 3000 (3-day assays); LNCAP, 1000 (4-day assays). Cell plating number was determined by growth rate of each cell line and duration of the assay. […] Cells were allowed to adhere for 24 h prior to compound addition as follows:
(§2) Ten-fold serial dilutions were performed with changing of pipette tips between each dilution. Diluted compounds were then added to the cells (50 μL/well) to final concentrations of 1×10^-5 -1×10^-11 M (1% ethanol) in triplicate. […] BrdU (5-bromo-2'-deoxyuridine) incorporation was analyzed as a measure of DNA replication (Cell Proliferation ELISA kit, Boehringer) and absorbance was measured at 450 nm.
(§3) One row of wells contained media only and these absorbance values were averaged as background and then subtracted from absorbance values from each individual well containing cells. The average values were then determined for each triplicate and plotted vs ligand concentration. The average vehicle (1% ethanol) value was determined, less the background average. […] Potency (EC50) was determined as the concentration of compound that elicited half-maximal response.

[4] = system: SK-BR-3 breast cancer cells; assay: Breast cancer cell growth inhibition (BrdU); assay type: cell-based; settings: Homo sapiens, SK-BR-3, 72 h, BrdU incorporation, 3-day assay
Method: as §1, §2, §3

[5] = system: Normal human epidermal keratinocytes (NHEK); assay: Keratinocyte growth inhibition (BrdU); assay type: cell-based; settings: 96 h, BrdU incorporation, day 4
Method: as §2, §3
Keratinocyte growth inhibition. Normal human epidermal keratinocytes (NHEK) were grown according to vendor specifications (Clonetics, San Diego). BrdU assays were performed as above except that cells were plated at 200 cells per well (96-well plates) and fresh media with ligands were added on day 0 and day 2; BrdU assays were run on day 4.

[6] = system: 24(OH)ase; assay: In vivo gene regulation: kidney 24(OH)ase RNA induction (Northern blot); parameters: species or system mouse (Balb/c mice); settings: for Relative 24(OH)ase activity: oral gavage, vehicle 1, corrected with GAPDH
Method: (§4) In vivo gene regulation and calcium potential. Balb/c mice (male 6-8 weeks old, ~20 g) were fed a vitamin D deficient, calcium replete diet (Purina Mills) for 7-14 days prior to receiving treatment with compounds. Animals were housed under normal lighting. Compounds were administered in sesame oil vehicle with 4% ethanol by oral gavage (0.1 mL dose volume). […] On the final day of dosing, 4-6 h after the final dose, animals were euthanized, the kidneys removed and blood collected. Serum was prepared from the blood and calcium determination performed by colorimetric assay (Sigma). […] 15-20 μg total RNA was utilized in Northern blot analysis using rat 24(OH)ase probe; GAPDH probe was used to normalize for RNA loading, as described previously (Id). Quantitation was by PhosphorImager analysis.

[7] = In vivo calcium potential: serum calcium (colorimetric); parameters: species or system mouse (Balb/c mice); settings: oral gavage
Method: as §4

[8] = system: LNCaP tumor; assay: In vivo efficacy: LNCaP tumor growth in nude mice; parameters: species or system LNCaP human prostate cancer cells in nude mice
Method: (§5) In vivo efficacy. Nude mice (6 weeks old) were housed under normal light and fed a vitamin D deficient, calcium replete diet (Purina Mills) for 7-10 days prior to injection with LNCaP cells. Tumors were allowed to grow 2-4 weeks prior to dosing. Compounds or vehicle were administered in sesame oil by oral gavage (0.1 mL dose volume). Dosing was daily for the extent of the study. Tumor measurements were taken on days 10 and 15. Animals were then euthanized, and kidneys and blood retrieved. Serum calcium measurements were taken from the final bleed and an intermediate bleed on day 10. […] Average animal weight change per group was as follows: Vehicle, -7.2%; Compound 4 (3 mg/kg), -2.1%; Compound 4 (10 mg/kg), -8.9%.

[9] = Serum calcium in LNCaP tumor-bearing nude mice; assay type: in vivo; settings: 3 mg/kg and 10 mg/kg, days 10 and 15
Method: FIGS. 1A and 1B depict the In vivo efficacy of compound 4 in LNCaP tumor growth inhibition in nude mice without hypercalcemia.
as §5

[10] = Animal weight change in LNCaP tumor-bearing nude mice; assay type: in vivo; settings: vehicle -7.2%
Method: as §5

[11] = target: T1, human VDR (Homo sapiens, UniProt P11473); assay: biochemical
T1 sequence (P11473 1-427): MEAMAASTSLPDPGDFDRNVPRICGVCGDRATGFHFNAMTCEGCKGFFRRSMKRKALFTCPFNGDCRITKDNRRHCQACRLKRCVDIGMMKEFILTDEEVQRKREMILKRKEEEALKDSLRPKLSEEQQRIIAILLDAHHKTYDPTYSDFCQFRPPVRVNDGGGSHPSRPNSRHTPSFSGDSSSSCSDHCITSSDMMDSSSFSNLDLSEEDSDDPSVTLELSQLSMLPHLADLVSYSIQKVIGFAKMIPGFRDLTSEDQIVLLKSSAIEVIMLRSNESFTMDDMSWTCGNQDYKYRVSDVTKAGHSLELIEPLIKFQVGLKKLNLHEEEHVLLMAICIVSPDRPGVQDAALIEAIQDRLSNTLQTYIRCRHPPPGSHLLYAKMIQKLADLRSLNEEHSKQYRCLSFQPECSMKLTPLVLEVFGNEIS
Method: VDR binding. […] Cell extracts from yeast transformants were prepared and full length VDR expression was confirmed by Western blotting. […] Binding buffer contained 10 mM Tris,pH 7.5, 1 mM DTT, and 0.4 M KCl; wash buffer contained 10 mM Tris, 100 mM KCl, and 10 mM CHAPS detergent.

[12] = target: T1, human VDR; assay: Cotransactivation (CTF) in Hep G2 cells, VDRE-luciferase reporter; assay type: cell-based; parameters: expressed in transfected cells; host or cells: Hep G2 (human hepatoma, ATCC)
Method: Cotransactivation properties. […] Reporter and receptor containing vectors were transfected along with carrier DNA and β-galactosidase internal control plasmid as previously described except that Hep G2 cells were used (Id). Briefly, transfections were performed in triplicate in 96-well gelatin-coated plates with a total of 20 μg/mL DNA (0.5 μg receptor expression vector, 5 μg reported plasmid, 5 μg β-galactosidase plasmid, and pGEM carrier DNA to 20 μg) of calcium phosphate-HEPES transfection solution. […] Luciferase values were normalized with β-galactosidase values to control for variable transfection efficiencies.

Cc1cc(C2(c3ccc(OCC(=O)C(C)(C)C)c(C)c3)CCCCC2)ccc1OCC(=O)C(C)(C)C [Compound 4, 1,1-bis[3-methyl-4-(3,3-dimethyl-2-oxobutoxy)phenyl]cyclohexane]
pIC50 [1]: < 5.00 | pEC50 [2]: 5.70 | pEC50 [3]: 5.70 | pEC50 [4]: 5.70 | pEC50 [5]: 6.30 | Ratio 24(OH)ase/Ca2+ ([6]; 3-day treatment, 10 mg/kg): 1.48 | Ratio 24(OH)ase/Ca2+ increase ([6]; 3-day treatment, 10 mg/kg): 16.9 | Relative 24(OH)ase activity ([6]; 3-day treatment, 10 mg/kg): 13.5 | Ratio 24(OH)ase/Ca2+ ([6]; 3-day treatment, 30 mg/kg): 1.18 | Ratio 24(OH)ase/Ca2+ increase ([6]; 3-day treatment, 30 mg/kg): 15.1 | Relative 24(OH)ase activity ([6]; 3-day treatment, 30 mg/kg): 10.6 | Ratio 24(OH)ase/Ca2+ ([6]; 5-day treatment, 10 mg/kg): 3.38 | Ratio 24(OH)ase/Ca2+ increase ([6]; 5-day treatment, 10 mg/kg): 61.6 | Relative 24(OH)ase activity ([6]; 5-day treatment, 10 mg/kg): 30.8 | Ratio 24(OH)ase/Ca2+ ([6]; 5-day treatment, 30 mg/kg): 5.31 | Ratio 24(OH)ase/Ca2+ increase ([6]; 5-day treatment, 30 mg/kg): 35.8 | Relative 24(OH)ase activity ([6]; 5-day treatment, 30 mg/kg): 53.7 | separation of target gene induction from serum calcium ([6]; mice, vs 1,25(OH)2 D3): greater separation of these effects for 4 than for 1,25(OH)2 D3; also recorded: good separation of target gene regulation from serum calcium elevation | Serum Ca2+ ([7]; 3-day treatment, 10 mg/kg): 9.1 ± 0.5 mg/dL | Serum Ca2+ ([7]; 3-day treatment, 30 mg/kg): 9.0 ± 0.6 mg/dL | Serum Ca2+ ([7]; 5-day treatment, 10 mg/kg): 9.1 ± 0.2 mg/dL | Serum Ca2+ ([7]; 5-day treatment, 30 mg/kg): 10.1 ± 0.5 mg/dL | tumor growth rate vs control group ([8]; 3 mg/kg and 10 mg/kg oral gavage daily): decreased tumor growth rates as compared to the control group | tumor size vs vehicle (FIG. 1A) ([8]; 10 and 15 days post dosing): smaller | serum calcium levels / hypercalcemia (FIG. 1B) [9]: hypercalcemia was not observed; also recorded: normal serum calcium levels | Average animal weight change per group ([10]; 3 mg/kg): -2.1% | Average animal weight change per group ([10]; 10 mg/kg): -8.9% | pKi [11]: < 5.00 | pEC50 [12]: 5.66
